# Assay results published in patent publication US20030134335A1, “Method for reducing the immunogenicity of heterologous proteins by elimination of t-cell epitopes” (priority 1999, published 2003).
# Legend:
# [1] = system: SakSTAR specific T-cell clones (CD3+, CD4+); experiment: Functional T-cell assay: proliferation (BrdU) of SakSTAR-specific T-cell clones with APC and antigen/peptide; format: cell-based, human; conditions: for immunogenic / functional T-cell epitope by T-cell clone specificity: over 100 SakSTAR specific T-cell clones, SakSTAR-derived peptides; for proliferation of region(71-87)-specific T-cell clones: positive if at least three times the background
# Source text: For the cloning of SakSTAR-specific T-cell clones, approximately 15×10^6 PBMC from each donor were stimulated with an optimal concentration of SakSTAR for 7-9 days. The visible T-cell clones were harvested under the microscope, and individually re-stimulated in a 96-well flat-bottom plate with autologous PBMC as antigen presenting cells (APC). These wells were supplemented on day 1 with 20U/ml recombinant human interleukin-2 (IL-2) (Boehringer Mannheim, Mannheim, Germany) and allowed to grow for 8-11 days. Re-stimulation was repeated every 8-11 days under the same conditions. After 3 to 6 passages, autologous PBMC were replaced by autologous Epstein Barr Virus (EBV)-immortalized B-cell lines as antigen presenting cells.
# To identify immunogenic regions on the SakSTAR molecule, the isolated T-cell clones were tested for their specificity using SakSTAR-derived peptides. In total 25 peptides 17 residues in length, each overlapping 12 residues were synthesized using a fluorenylmethoxy-carbonyl-protected amino acid coupling procedure (Hiemstra et al., 1997). Each individual T-cell clone was tested for its specificity by co-culturing T-cells, Mitomycin C-treated autologous EBV-B-cells and antigen or the appropriate peptide for 4 days. Subsequently, the T-cell clones were pulsed for 24 hours with BrdU, harvested and analyzed for their BrdU content.
# PBMC = experiment: Proliferation (stimulation index) of SakSTAR-myc-primed PBMC re-stimulated with antigen/peptides; format: cell-based, human; conditions: for cellular immune response (stimulation index) of SakSTAR-myc primed PBMC: PBMC from 10 region(71-87)-immunoreactive donors, value exceeding 3 positive
# Source text: However, the vast majority of humans does also recognize additional immunogenic SakSTAR regions (untouched in these SakSTAR-variants), which would invalidate such an experiment. Therefore, 25 other healthy donors were screened for SakSTAR immunoreactivity. PBMC were thawed, washed four times in 1% human serum albumin, and cultured at 1.8×10^6 cells/ml in RPMI 1640 supplemented with 5%. human serum (Biowitthaker, Walkersville, Md.) and gentamycin with or without SakSTAR-myc for 10 days in a humidified CO2 incubator. The non-adherent cells were harvested and restimulated with no antigen, SakSTAR-myc or different peptides. For antigen presenting cells, irradiated autologous PBMC were T-cell depleted, using CD3-M450 Dynabeads (Dynal, Compiégne, France) according manufacturer procedures (FACS analysis indicated >95% non-T-cells). The plates were incubated at 37° C. under humidified atmosphere containing 5% CO2 for 5 days, and pulsed with BrdU for the last 22 to 24 hours.
# Subsequently, the cells were harvested and analyzed for their BrdU content (BrdU ELISA, Boehringer Mannheim, Mannheim, Germany). A stimulation index was calculated, by dividing the OD obtained from the PBMC in response to an antigen/peptide by that of the spontaneous proliferation (no antigen) control. A value exceeding 3 was considered positive, indicating the proliferation of specific T-cells to that particular antigen/peptide.
Sequence,immunogenic / functional T-cell epitope by T-cell clone specificity [1],cellular immune response (stimulation index) of SakSTAR-myc primed PBMC (PBMC),also measured
"AYKEFRVVELD [S1, 11-mer peptide, SakSTAR residues 72-82]",functional T-cell epitopes,–,proliferation of region(71-87)-specific T-cell clones [1]: clones Tc-1 to Tc-6 proliferated
"EFRVVELDPSA [S2, 11-mer peptide, SakSTAR residues 75-85]",functional T-cell epitopes,–,proliferation of region(71-87)-specific T-cell clones [1]: Tc-7 to Tc-10 recognize the S2 peptide
HYVEFPIKPGT [43-HYVEFPIKPGT-53],no T-cell clones were isolated,–,–
"TAYAAFAVVALAPSAKI [quintuple (K74A, E75A, R77A, E80A, D82A), multiple mutation(71-87) peptide]",–,none of the tested donors showed a positive cellular immune response,–
"TAYKEFAVVALAPSAKI [triple (R77A, E80A, D82A), multiple mutation(71-87) peptide]",–,none of the tested donors showed a positive cellular immune response,–
"TAYKEFAVVALDPSAKI [double (R77A, E80A), multiple mutation(71-87) peptide]",–,none of the tested donors showed a positive cellular immune response,–
"TAYKEFRVVELDPSAKI [71-TAYKEFRVVELDPSAKI-87, wild type SakSTAR(71-87) 17-mer peptide]",–,–,"donors from which isolated T-cell clones were stimulated by the peptide ([1]; T-cell clones from 10 healthy donors): 9 of 10; SakSTAR positive donors with a cellular immune response to the peptide (PBMC; 20 identified SakSTAR positive donors, stimulation index exceeding 3 positive): 80%"
"TAYQEFSVVSLSPSAKI [quadruple (K74Q, R77S, E80S, D82S), multiple mutation(71-87) peptide]",–,none of the tested donors showed a positive cellular immune response,–
TYYDKNKKKEE [90-TYYDKNKKKEE-100],no T-cell clones were isolated,–,–
